# Patent US9925193B2, “Thioether derivatives as protein kinase inhibitors” (KTB TUMORFORSCHUNGSGESELLSCHAFT MBH, priority 2012, dated 2018)
# Columns and labels:
# KIT wt = target: T1, KIT wt (Homo sapiens, UniProt P10721); assay: 33PanQinase Activity Assay, KIT wt; assay type: biochemical; settings: recombinant human protein kinase, 1 μM [γ-33P]-ATP, 30° C. 80 minutes
# T1 construct: made in house; host or cells: Sf9 insect cells (baculovirus)
# Procedure: (§1) The effect of the thioether derivatives 8a-v and 9a-i was tested on recombinant, human protein kinases. All protein kinases were expressed in Sf9 insect cells as human recombinant GST-fusion proteins or as His-tagged proteins by means of the baculovirus expression system. Protein kinases were purified by affinity chromatography using either GSH-agarose or Ni-NTH-agarose. The purity and identity of each was checked by SDS-PAGE/silver staining and by western blot analysis with specific antibodies.
# (§2) A proprietary protein kinase assay (^33PanQinase® Activity Assay) was used for measuring the kinase activity. All kinase assays were performed in 96-well FlashPlates™ in a 50 μl reaction volume. The assay for all enzymes contained 60 mM HEPES-NaOH, pH 7.5, 3 mM MgCl2, 3 mM MnCl2, 3 μM Na-orthovanadate, 1.2 mM DTT, 50 μg/ml PEG20000 and 1 μM [γ-^33P]-ATP (approx. 5×10^5 cpm per well).
# (§3) The reaction cocktails were incubated at 30° C. for 80 minutes. The reaction was stopped with 50 μl of 2% (v/v) H3PO4, plates were aspirated and washed two times with 200 μl of 0.9% (w/v) NaCl. Incorporation of ^33Pi was determined with a microplate scintillation counter. All assays were performed with a BeckmanCoulter/Sagian robotic system.
# ALK = target: T2, ALK (Homo sapiens, UniProt Q9UM73); assay: 33PanQinase Activity Assay, ALK; assay type: biochemical; settings: recombinant human protein kinase, 1 μM [γ-33P]-ATP, 30° C. 80 minutes
# T2 construct: made in house; host or cells: Sf9 insect cells (baculovirus)
# T2 sequence (Q9UM73 19-1620): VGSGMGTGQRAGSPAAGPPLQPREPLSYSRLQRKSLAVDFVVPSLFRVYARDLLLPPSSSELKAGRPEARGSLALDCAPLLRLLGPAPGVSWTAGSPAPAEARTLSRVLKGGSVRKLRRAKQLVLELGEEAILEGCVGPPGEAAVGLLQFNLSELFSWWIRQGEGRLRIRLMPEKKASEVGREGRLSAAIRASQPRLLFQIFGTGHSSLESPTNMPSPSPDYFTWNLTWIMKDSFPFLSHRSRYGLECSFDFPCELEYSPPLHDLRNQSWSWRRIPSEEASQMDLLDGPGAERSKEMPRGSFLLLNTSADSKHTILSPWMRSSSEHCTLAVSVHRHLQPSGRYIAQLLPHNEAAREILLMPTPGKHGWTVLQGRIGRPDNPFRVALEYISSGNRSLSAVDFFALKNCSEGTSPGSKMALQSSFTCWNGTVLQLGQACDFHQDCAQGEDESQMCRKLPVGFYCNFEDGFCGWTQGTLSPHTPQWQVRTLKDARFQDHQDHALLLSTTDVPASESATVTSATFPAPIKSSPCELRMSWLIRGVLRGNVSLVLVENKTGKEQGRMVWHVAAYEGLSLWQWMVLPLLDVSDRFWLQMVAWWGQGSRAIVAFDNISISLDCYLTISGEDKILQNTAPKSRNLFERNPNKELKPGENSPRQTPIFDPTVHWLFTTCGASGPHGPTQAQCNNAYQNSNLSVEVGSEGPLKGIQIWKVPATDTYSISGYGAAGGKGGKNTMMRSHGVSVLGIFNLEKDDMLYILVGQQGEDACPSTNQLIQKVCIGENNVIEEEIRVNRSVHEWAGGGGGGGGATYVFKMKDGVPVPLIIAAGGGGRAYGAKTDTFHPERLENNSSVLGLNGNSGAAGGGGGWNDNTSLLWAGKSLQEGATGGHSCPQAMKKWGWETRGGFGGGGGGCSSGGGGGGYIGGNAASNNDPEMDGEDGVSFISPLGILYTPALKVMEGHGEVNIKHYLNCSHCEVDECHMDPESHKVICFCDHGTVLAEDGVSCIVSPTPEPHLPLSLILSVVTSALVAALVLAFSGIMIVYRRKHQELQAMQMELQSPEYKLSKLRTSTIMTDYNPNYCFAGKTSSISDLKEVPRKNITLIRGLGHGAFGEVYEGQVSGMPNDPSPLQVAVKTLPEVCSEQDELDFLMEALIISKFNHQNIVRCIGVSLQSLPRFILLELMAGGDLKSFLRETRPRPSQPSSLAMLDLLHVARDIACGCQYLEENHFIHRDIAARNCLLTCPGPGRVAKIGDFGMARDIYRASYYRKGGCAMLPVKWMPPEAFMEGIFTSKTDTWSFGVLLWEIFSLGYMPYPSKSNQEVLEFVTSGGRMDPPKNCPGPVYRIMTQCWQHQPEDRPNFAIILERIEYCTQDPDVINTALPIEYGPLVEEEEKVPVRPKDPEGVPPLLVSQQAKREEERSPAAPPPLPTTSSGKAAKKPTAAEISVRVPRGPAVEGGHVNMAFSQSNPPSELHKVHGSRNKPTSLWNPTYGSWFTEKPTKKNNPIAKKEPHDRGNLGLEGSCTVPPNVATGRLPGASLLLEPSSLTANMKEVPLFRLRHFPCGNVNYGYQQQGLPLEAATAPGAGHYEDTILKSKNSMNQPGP
# Procedure: as §1, §2, §3
# AXL = target: T3, AXL (Homo sapiens, UniProt P30530); assay: 33PanQinase Activity Assay, AXL; assay type: biochemical; settings: recombinant human protein kinase, 1 μM [γ-33P]-ATP, 30° C. 80 minutes
# T3 construct: made in house; host or cells: Sf9 insect cells (baculovirus)
# T3 sequence (P30530 26-894): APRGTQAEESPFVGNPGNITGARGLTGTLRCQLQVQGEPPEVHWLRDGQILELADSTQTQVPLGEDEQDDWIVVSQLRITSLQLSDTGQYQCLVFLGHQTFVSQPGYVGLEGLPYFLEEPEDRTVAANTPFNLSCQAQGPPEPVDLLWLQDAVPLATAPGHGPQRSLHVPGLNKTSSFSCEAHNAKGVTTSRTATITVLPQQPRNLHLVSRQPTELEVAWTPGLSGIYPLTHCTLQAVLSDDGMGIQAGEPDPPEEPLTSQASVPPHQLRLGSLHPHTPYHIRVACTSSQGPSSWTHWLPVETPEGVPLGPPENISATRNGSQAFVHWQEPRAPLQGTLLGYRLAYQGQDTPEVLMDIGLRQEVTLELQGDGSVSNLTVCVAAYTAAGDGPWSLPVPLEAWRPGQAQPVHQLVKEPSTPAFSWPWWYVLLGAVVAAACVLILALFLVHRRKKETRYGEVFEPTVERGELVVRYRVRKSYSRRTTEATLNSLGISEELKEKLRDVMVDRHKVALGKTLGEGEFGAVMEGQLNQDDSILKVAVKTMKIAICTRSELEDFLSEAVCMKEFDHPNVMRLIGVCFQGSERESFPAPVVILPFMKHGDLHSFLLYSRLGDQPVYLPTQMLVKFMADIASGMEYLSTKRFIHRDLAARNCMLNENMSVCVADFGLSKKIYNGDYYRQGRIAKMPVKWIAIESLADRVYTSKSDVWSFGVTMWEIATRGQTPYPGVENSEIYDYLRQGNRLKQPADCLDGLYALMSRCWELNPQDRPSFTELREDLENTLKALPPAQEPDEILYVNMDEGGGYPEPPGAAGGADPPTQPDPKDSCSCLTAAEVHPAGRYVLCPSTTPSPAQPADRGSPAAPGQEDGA
# Procedure: as §1, §2, §3
# SRC = target: T4, SRC (Homo sapiens, UniProt P12931); assay: 33PanQinase Activity Assay, SRC; assay type: biochemical; settings: recombinant human protein kinase, 1 μM [γ-33P]-ATP, 30° C. 80 minutes
# T4 construct: made in house; host or cells: Sf9 insect cells (baculovirus)
# T4 sequence (P12931 whole entry): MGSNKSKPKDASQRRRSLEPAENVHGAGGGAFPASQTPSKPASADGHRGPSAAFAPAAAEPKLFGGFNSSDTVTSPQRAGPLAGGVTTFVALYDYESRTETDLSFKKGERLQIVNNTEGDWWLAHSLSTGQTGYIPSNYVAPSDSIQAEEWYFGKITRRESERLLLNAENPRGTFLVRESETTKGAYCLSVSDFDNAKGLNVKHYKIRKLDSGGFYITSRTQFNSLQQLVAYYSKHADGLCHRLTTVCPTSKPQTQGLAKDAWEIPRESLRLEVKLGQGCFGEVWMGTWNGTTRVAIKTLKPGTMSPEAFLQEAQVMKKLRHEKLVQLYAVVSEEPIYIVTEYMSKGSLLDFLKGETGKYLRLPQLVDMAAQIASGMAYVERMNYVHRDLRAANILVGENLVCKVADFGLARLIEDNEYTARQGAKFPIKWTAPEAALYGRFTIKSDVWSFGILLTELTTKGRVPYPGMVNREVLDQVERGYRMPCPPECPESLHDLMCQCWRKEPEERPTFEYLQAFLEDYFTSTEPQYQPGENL
# Procedure: as §1, §2, §3
# PIM1 = target: T5, PIM1 (Homo sapiens, UniProt P11309); assay: 33PanQinase Activity Assay, PIM1; assay type: biochemical; settings: recombinant human protein kinase, 1 μM [γ-33P]-ATP, 30° C. 80 minutes
# T5 construct: made in house; host or cells: Sf9 insect cells (baculovirus)
# T5 sequence (P11309 whole entry): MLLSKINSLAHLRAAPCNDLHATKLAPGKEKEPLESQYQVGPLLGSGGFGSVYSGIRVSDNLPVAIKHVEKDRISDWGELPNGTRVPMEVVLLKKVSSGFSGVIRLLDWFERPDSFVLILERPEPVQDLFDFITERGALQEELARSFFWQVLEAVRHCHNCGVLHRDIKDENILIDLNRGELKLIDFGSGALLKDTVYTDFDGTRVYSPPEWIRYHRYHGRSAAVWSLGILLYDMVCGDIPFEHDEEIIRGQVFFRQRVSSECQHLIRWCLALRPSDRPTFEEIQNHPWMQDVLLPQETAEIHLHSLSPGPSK
# Procedure: as §1, §2, §3
# IGF1-R = target: T6, IGF1-R (Homo sapiens, UniProt P08069); assay: 33PanQinase Activity Assay, IGF1-R; assay type: biochemical; settings: recombinant human protein kinase, 1 μM [γ-33P]-ATP, 30° C. 80 minutes
# T6 construct: made in house; host or cells: Sf9 insect cells (baculovirus)
# Procedure: as §1, §2, §3
# FAK = target: T7, FAK (Homo sapiens, UniProt Q05397); assay: 33PanQinase Activity Assay, FAK; assay type: biochemical; settings: recombinant human protein kinase, 1 μM [γ-33P]-ATP, 30° C. 80 minutes
# T7 construct: made in house; host or cells: Sf9 insect cells (baculovirus)
# T7 sequence (Q05397 whole entry): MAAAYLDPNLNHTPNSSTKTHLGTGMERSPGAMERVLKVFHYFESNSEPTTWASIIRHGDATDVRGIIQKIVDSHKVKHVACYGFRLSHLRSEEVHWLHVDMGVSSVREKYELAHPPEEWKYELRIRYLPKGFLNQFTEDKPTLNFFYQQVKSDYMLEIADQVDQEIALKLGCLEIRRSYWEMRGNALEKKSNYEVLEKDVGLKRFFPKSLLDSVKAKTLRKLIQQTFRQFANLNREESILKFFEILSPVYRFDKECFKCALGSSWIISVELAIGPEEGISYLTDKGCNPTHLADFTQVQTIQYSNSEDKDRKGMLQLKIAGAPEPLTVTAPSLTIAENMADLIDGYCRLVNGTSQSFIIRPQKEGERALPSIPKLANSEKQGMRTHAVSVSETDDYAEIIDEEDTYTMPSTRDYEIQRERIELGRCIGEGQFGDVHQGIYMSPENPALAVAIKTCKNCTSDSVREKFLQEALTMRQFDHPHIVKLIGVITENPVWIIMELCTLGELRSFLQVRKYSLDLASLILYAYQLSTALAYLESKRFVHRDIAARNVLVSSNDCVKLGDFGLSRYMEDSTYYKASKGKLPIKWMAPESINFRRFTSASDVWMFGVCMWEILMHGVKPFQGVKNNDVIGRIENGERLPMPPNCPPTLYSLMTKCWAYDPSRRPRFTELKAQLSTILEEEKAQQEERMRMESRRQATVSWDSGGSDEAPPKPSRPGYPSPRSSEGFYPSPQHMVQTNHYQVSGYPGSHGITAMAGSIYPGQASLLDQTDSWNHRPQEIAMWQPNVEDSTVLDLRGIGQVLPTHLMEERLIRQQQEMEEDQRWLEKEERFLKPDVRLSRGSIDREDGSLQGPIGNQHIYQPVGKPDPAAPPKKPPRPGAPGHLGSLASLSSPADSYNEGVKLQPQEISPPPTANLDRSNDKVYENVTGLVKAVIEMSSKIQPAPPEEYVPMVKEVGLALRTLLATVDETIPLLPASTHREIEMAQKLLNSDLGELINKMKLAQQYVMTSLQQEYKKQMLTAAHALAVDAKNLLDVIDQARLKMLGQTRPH
# Procedure: as §1, §2, §3
# VEGF-R2 = target: T8, VEGF-R2 (Homo sapiens, UniProt P35968); assay: 33PanQinase Activity Assay, VEGF-R2; assay type: biochemical; settings: recombinant human protein kinase, 1 μM [γ-33P]-ATP, 30° C. 80 minutes
# T8 construct: made in house; host or cells: Sf9 insect cells (baculovirus)
# Procedure: as §1, §2, §3
# T1 sequence (P10721 26-976): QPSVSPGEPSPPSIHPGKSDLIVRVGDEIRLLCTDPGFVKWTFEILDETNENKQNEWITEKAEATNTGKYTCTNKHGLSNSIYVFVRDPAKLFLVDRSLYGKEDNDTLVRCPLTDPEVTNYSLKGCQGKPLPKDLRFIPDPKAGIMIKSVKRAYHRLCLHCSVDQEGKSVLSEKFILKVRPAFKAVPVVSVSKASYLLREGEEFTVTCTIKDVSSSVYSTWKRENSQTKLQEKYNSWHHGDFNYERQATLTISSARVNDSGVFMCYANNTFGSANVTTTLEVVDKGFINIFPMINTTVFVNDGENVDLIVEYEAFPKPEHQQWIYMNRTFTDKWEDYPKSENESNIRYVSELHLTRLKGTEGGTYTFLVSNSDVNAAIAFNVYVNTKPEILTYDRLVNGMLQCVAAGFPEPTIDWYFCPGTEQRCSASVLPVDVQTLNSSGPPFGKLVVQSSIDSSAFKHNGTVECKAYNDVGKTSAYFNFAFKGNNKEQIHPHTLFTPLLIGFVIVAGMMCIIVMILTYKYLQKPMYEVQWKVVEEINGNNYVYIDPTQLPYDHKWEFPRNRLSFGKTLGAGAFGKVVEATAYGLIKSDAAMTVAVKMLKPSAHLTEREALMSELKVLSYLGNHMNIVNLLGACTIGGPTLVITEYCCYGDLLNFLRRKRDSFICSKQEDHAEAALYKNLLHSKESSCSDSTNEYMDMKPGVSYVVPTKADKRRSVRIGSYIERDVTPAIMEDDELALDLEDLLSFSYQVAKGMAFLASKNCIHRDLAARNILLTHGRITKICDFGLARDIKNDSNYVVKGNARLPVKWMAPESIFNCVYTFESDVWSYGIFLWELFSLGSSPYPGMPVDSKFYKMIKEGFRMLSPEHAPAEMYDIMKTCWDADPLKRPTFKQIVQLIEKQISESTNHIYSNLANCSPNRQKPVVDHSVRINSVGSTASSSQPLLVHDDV
IC50 (KIT wt) [µM],melting point [°C],IC50 (ALK) [µM],IC50 (AXL) [µM],IC50 (SRC) [µM],IC50 (PIM1) [µM],IC50 (IGF1-R) [µM],IC50 (FAK) [µM],IC50 (VEGF-R2) [µM],SMILES
1.04,223,0.987,3.16,–,–,–,–,–,"Fc1ccc(-c2cc3ncnc(Sc4nnc(-c5ccccc5)o4)c3s2)cc1 [Compound 8a, 2-{[6-(4-Fluorophenyl)thieno[3,2-d]pyrimidin-4-yl]thio}-5-phenyl-1,3,4-oxadiazole]"
1.74,232,2.94,2.64,–,–,–,–,–,"Fc1ccc(-c2cc3ncnc(Sc4nnc(-c5ccncc5)o4)c3s2)cc1 [Compound 8b, 2-{[6-(4-Fluorophenyl)thieno[3,2-d]pyrimidin-4-yl]thio}-5-(pyridin-4-yl)-1,3,4-oxadiazole]"
2.76,170 to 172,6.54,12.3,–,–,–,–,–,"CN(C)Cc1nnc(Sc2ncnc3cc(-c4ccc(F)cc4)sc23)o1 [Compound 8c, 1-{5-[(6-{4-Fluorophenyl}thieno[3,2-d]pyrimidin-4-yl)thio]-1,3,4-oxadiazol-2-yl}-N,N-dimethylmethanamine]"
3.85,–,5.59,7.66,–,–,–,–,–,"Fc1ccc(-c2cc3ncnc(Sc4nnc(CN5CCOCC5)o4)c3s2)cc1 [Compound 8d, 4-{[5-({6-[4-Fluorophenyl]thieno[3,2-d]pyrimidin-4-yl}thio)-1,3,4-oxadiazol-2-yl]methyl}morpholine]"
–,197 to 199,2.37,6.19,2.51,22.9,3.28,4.82,4.07,"CC(C)(C)c1nnc(Sc2ncnc3cc(-c4ccc(F)cc4)sc23)o1 [Compound 8g, 2-(tert-Butyl)-5-{[6-(4-fluorophenyl)thieno[3,2-d]pyrimidin-4-yl]thio}-1,3,4-oxadiazole]"
–,180 to 182,2.95,4.58,2.62,26.3,7.65,5.76,2.05,"O=S1(=O)CCC(Cc2nnc(Sc3ncnc4cc(-c5ccc(F)cc5)sc34)o2)C1 (stereo not shown) [Compound 8k, 3-{[5-({6-[4-Fluorophenyl]thieno[3,2-d]pyrimidin-4-yl}thio)-1,3,4-oxadiazol-2-yl]methyl}-tetrahydrothiophene-1,1-dioxide]"
–,213 to 215,0.97,0.94,0.032,–,–,0.83,–,"COc1ccc(-c2cc3ncnc(Sc4nnc(-c5ccccc5)o4)c3s2)cc1 [Compound 8m, 2-{[6-(4-Methoxyphenyl)thieno[3,2-d]pyrimidin-4-yl]thio}-5-phenyl-1,3,4-oxadiazole]"
–,221 to 223,1,2.7,0.55,–,–,1.4,–,"COc1ccc(-c2cc3ncnc(Sc4nnc(-c5ccc(Cl)cc5)o4)c3s2)cc1 [Compound 8n, 2-(4-Chlorophenyl)-5-{[6-(4-methoxyphenyl)thieno[3,2-d]pyrimidin-4-yl]thio}-1,3,4-oxadiazole]"
–,227 to 228,0.88,2.4,0.84,–,–,1.7,–,"COc1ccc(-c2cc3ncnc(Sc4nnc(-c5ccc(C(F)(F)F)cc5)o4)c3s2)cc1 [Compound 8o, 2-{[6-(4-Methoxyphenyl)thieno[3,2-d]pyrimidin-4-yl]thio}-5-[4-(trifluoro-methyl)phenyl]-1,3,4-oxadiazole]"
–,184 to 186,0.92,1.9,0.68,–,–,1.3,–,"COc1ccc(-c2cc3ncnc(Sc4nnc(-c5ccccc5C)o4)c3s2)cc1 [Compound 8p, 2-{[6-(4-methoxyphenyl)thieno[3,2-d]pyrimidin-4-yl]thio}-5-(o-tolyl)-1,3,4-oxadiazole]"
–,213 to 215,1.3,2.2,0.8,–,–,1.5,–,"COc1ccc(-c2cc3ncnc(Sc4nnc(-c5ccc(Cl)cc5Cl)o4)c3s2)cc1 [Compound 8q, 2-(2,4-Dichlorophenyl)-5-{[6-(4-methoxyphenyl)thieno[3,2-d]pyrimidin-4-yl]thio}-1,3,4-oxadiazole]"
–,206 to 208,0.73,1.2,0.65,–,–,0.9,–,"COc1ccc(-c2cc3nc(N)nc(Sc4nnc(-c5ccc(Cl)cc5)o4)c3s2)cc1 [Compound 8r, 4-{[5-(4-Chlorophenyl)-1,3,4-oxadiazol-2-yl]thio}-6-(4-methoxyphenyl)thieno[3,2-d]pyrimidin-2-amine]"
–,250 to 251,27,24,19,–,–,26,–,"c1ccc(-c2nc3c(Sc4nnc(-c5ccncc5)o4)ncnc3[nH]2)cc1 [Compound 8s, 2-[(8-Phenyl-9H-purin-6-yl)thio]-5-(pyridin-4-yl)-1,3,4-oxadiazole]"
–,198 to 199,76,> 100,32,–,–,43,–,"c1ccc(Cc2nnc(Sc3ncnc4[nH]c(-c5ccccc5)nc34)o2)cc1 [Compound 8t, 2-Benzyl-5-[(8-phenyl-9H-purin-6-yl)thio]-1,3,4-oxadiazole]"
–,224 to 225,22,40,11,–,–,23,–,"c1ccc(-c2nc3c(Sc4nnc(-c5ccco5)o4)ncnc3[nH]2)cc1 [Compound 8u, 2-(Furan-2-yl)-5-[(8-phenyl-9H-purin-6-yl)thio]-1,3,4-oxadiazole]"
0.608,–,2.16,1.63,–,–,–,8.93,–,O=C1CCCCCN1Cc1nnc(Sc2ncnc3cc(-c4ccc(Cl)cc4)sc23)o1 [Compound 9a]
6.48,–,3.03,6.09,–,–,–,15,–,Fc1ccc(-c2cc3ncnc(Sc4nnc(CN5CCCC5)o4)c3s2)cc1 [Compound 9b]
4.92,–,0.935,6.56,–,–,–,3.52,–,Fc1ccc(-c2cc3ncnc(Sc4nnc(-c5ccc6c(c5)OCO6)o4)c3s2)cc1 [Compound 9c]
2.41,–,13.6,28.9,–,–,–,13.6,–,Cn1nnnc1Sc1ncnc2cc(-c3ccc(F)cc3)sc12 [Compound 9d]
1.3,–,2.76,9.76,–,–,–,7.89,–,COc1ccc(-c2cc3ncnc(Sc4nnnn4C4CC4)c3s2)cc1 [Compound 9e]
0.804,–,3.51,5.2,–,–,–,16.7,–,COCCNc1nnc(Sc2ncnc3cc(-c4ccc(OC)cc4)sc23)s1 [Compound 9f]
1.02,–,2.37,5.8,–,–,–,5.99,–,COc1ccc(-c2cc3ncnc(Sc4nnnn4C)c3s2)cc1 [Compound 9g]
0.873,–,2.72,10.1,–,–,–,10.5,–,COc1ccc(-c2cc3ncnc(Sc4n[nH]/c(=N\C5CC5)s4)c3s2)cc1 [Compound 9h]
1.25,–,15,41.7,–,–,–,> 100,–,Cc1nnc(Sc2ncnc3cc(-c4ccc(Cl)cc4)sc23)s1 [Compound 9i]
